These results are taken from patent US20160045505A1, “COMPOUNDS AND COMPOSITIONS FOR THE TREATMENT OF PARASITIC DISEASES” (NOVARTIS AG, priority 2013, published 2016).

Assay [1] relates to Leishmania donovani axenic amastigote parasites. Put plainly: Leishmania donovani axenic amastigote proliferation assay (Cell TiterGlo luminescence, 2 day incubation). Type of assay: cell-based. As to conditions: Leishmania donovani, L. donovani axenic amastigotes; read-out: L. donovani amastigotes EC50. A general note: ATP-based viability assays read luminescence as a measure of living cells.

The subject of assay [2] is L. donovani HU3 strain in mouse peritoneal macrophages. Put plainly: Assay for proliferation of Leishmania parasites in infected mouse peritoneal macrophages (SybrGreen staining, high-content imaging, 5 days). The class given is cell-based, Leishmania donovani. As to conditions: Leishmania donovani, Peritoneal macrophage, L. donovani in mouse peritoneal macrophages; read-out: L. donovani Macrophage EC50.

Assay [3] concerns Trypanosoma brucei Lister 427 strain, bloodstream form. Kind of assay: Assay for proliferation of kinetoplastid parasite Trypanosoma brucei (Cell Titer Glo, 48 hours). Type of assay: cell-based. To be noted: Trypanosoma brucei, T. brucei Lister 427 bloodstream form; read-out: T. brucei EC50. A digest of the protocol: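 Bloodstream-form T. brucei Lister 427 in HMI-9 medium was exposed to compound (DMSO vehicle) for 48 hours at 37° C, 5% CO2. Parasite growth was read as ATP by CellTiter-Glo luminescence, with EC50 calculated from percent inhibition.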

The subject of assay [4] is Trypanosoma cruzi amastigotes (Tulahuen strain expressing Lac-Z) cultured in 3T3 fibroblast cells. Kind of assay: microbe, parasite or virus in culture. The class given is cell-based. To be noted: Trypanosoma cruzi, TULAHUEN, Fibroblast, T. cruzi amastigotes in 3T3 fibroblast cells; read-out: T cruzi EC50.

In the case of `CNc1ccc(-c2cnc3nc(-c4cc(NC(=O)c5oc(C)nc5C)ccc4F)cn3c2)cc1` [Compound 392], the EC50 in assay [1] worked out at 103 nM; in assay [2], 152 nM; in assay [3], 55 nM; in assay [4] it was 48 nM.
For `Cc1nc(C)c(C(=O)Nc2ccc(F)c(-c3cn4cc(-c5ccnn5C)cnc4n3)c2)o1` [Compound 393], in that order: 147 nM, 183 nM, 110 nM and 149 nM.
For `Cc1nc(C)c(C(=O)Nc2ccc(F)c(-c3cn4cc(-c5cccnc5)cnc4n3)c2)o1` [Compound 395], in that order: 109 nM, 187 nM, 45 nM and 153 nM.
As to `Cc1nc(C)c(C(=O)Nc2ccc(F)c(-c3cn4cc(-c5ccc(F)cc5)cnc4n3)c2)o1` [Compound 396], the EC50 in assay [1] was 55 nM; in assay [2], 88 nM; in assay [3], 42 nM; in assay [4], 17 nM.
Take `Cc1nc(C)c(C(=O)Nc2ccc(F)c(-c3cn4cc(-c5ccccc5S(C)(=O)=O)cnc4n3)c2)o1` [Compound 397]: the EC50 in assay [1] came out at 337 nM; in assay [2], 448 nM; in assay [3], 68 nM; in assay [4], 200 nM.
For `Cc1ncc(C(=O)Nc2ccc(F)c(-c3cn4cc(-c5cccnc5)cnc4n3)c2)o1` [Compound 398], in that order: 186 nM, 424 nM, 317 nM and 572 nM.
As to `CC(C)OC(=O)Nc1ccc(F)c(-c2cn3cc(-c4cccnc4)cnc3n2)c1` [Compound 399], the concentration for a half-maximal effect (EC50) worked out at 274 nM in assay [1], 646 nM in assay [2], 103 nM in assay [3] and 80 nM in assay [4].
For the compound `O=C(Nc1ccc(F)c(-c2cn3cc(-c4cccnc4)cnc3n2)c1)N1CC(F)C1` [Compound 401], the EC50 in assay [1] turned out to be 94 nM; in assay [2], 263 nM; in assay [3] it was 34 nM; in assay [4], 445 nM.
With `O=C(Nc1ccc(F)c(-c2cn3cc(-c4cccnc4)cnc3n2)c1)N1CC(F)(F)C1` [Compound 402], the 50% effective concentration (EC50) in assay [1] amounted to 69 nM; in assay [2] it was 285 nM; in assay [3], 11 nM; in assay [4], 251 nM.
Turning to `O=C(Nc1ccc(F)c(-c2cn3cc(-c4cccnc4)cnc3n2)c1)N1CCC1` [Compound 405], the EC50 in assay [1] is 94 nM; in assay [2], 361 nM; in assay [3], 13 nM; in assay [4], 271 nM.
Turning to `O=C(Nc1ccc(F)c(-c2cn3cc(-c4ccccn4)cnc3n2)c1)N1CC[C@@H](F)C1` [Compound 407], the EC50 in assay [1] turned out to be 9 nM; in assay [2], 14 nM; in assay [3], 4 nM; in assay [4], 14 nM.
Turning to `O=C(Nc1ccc(F)c(-c2cn3cc(-c4cccnc4)cnc3n2)c1)N1CC[C@@H](F)C1` [Compound 408], the half-maximal effective concentration (EC50) in assay [1] was found to be 78 nM; in assay [2] it was 246 nM; in assay [3], 18 nM; in assay [4], 237 nM.
On the same counts, the results for `O=C(Nc1ccc(F)c(-c2cn3cc(-c4ccccc4)cnc3n2)c1)N1CC[C@@H](F)C1` [Compound 409] are 19 nM, 61 nM, 4 nM and 5 nM.
For `CC(C)c1cnc2nc(-c3cc(NC(=O)N4CCC4)ccc3F)cn2c1` [Compound 411, N-(4-fluoro-3-(6-isopropylimidazo[1,2-a]pyrimidin-2-yl)phenyl)azetidine-1-carboxamide], the EC50 in assay [1] was found to be 83 nM; in assay [2] it was 154 nM; in assay [3], 22 nM; in assay [4], 46 nM.
In the case of `Cc1nc(C)c(C(=O)Nc2ccc(F)c(-c3cn4cc(C(C)C)cnc4n3)c2)o1` [Compound 412], the EC50 in assay [1] was 46 nM; in assay [2] it was 134 nM; in assay [3] it was 40 nM; in assay [4], 48 nM.
On the same counts, the results for `Cc1ncc(C(=O)Nc2ccc(F)c(-c3cn4cc(C(C)C)cnc4n3)c2)o1` [Compound 413] are 26 nM, 54 nM, 39 nM and 14 nM.
As to `CC(C)OC(=O)Nc1ccc(F)c(-c2cn3cc(C(C)C)cnc3n2)c1` [Compound 414], the concentration giving a half-maximal response (EC50) in assay [1] was determined as 217 nM; in assay [2], 1160 nM; in assay [3] it was 131 nM; in assay [4] it was 115 nM.
For `CC(C)c1cnc2nc(-c3cc(NC(=O)N4CC(F)C4)ccc3F)cn2c1` [Compound 415], in that order: 28 nM, 114 nM, 12 nM and 44 nM.
On the same counts, the results for `CC(C)c1cnc2nc(-c3cc(NC(=O)N4CC(F)(F)C4)ccc3F)cn2c1` [Compound 416] are 30 nM, 93 nM, 41 nM and 47 nM.
For `CC(C)c1cnc2nc(-c3cc(NC(=O)N(C)C)ccc3F)cn2c1` [Compound 417], in that order: 250 nM, 1300 nM, 145 nM and 135 nM.
Consider `CC(C)c1cnc2nc(-c3cc(NC(=O)N4CC[C@@H](F)C4)ccc3F)cn2c1` [Compound 418], for which the concentration for a half-maximal effect (EC50) is 29 nM in assay [1], 71 nM in assay [2], 8 nM in assay [3] and 15 nM in assay [4].
Take `Cc1nc(C)c(C(=O)Nc2ccc(F)c(-c3cn4cc(C(C)c5ccccc5)cnc4n3)c2)o1` (stereo not drawn) [Compound 420]: the EC50 came to 830 nM in assay [1], 1090 nM in assay [2], 520 nM in assay [3] and 307 nM in assay [4].
Consider `Cc1nc(C)c(C(=O)Nc2ccc(F)c(-c3cn4cc(C5CCCC5)cnc4n3)c2)o1` [Compound 422], for which the EC50 in assay [1] was found to be 126 nM; in assay [2] it was 305 nM; in assay [3] it was 33 nM; in assay [4], 193 nM.
For `CCc1cnc2nc(-c3cc(NC(=O)c4oc(C)nc4C)ccc3F)cn2c1` [Compound 423], in that order: 90 nM, 217 nM, 35 nM and 48 nM.
On the same counts, the results for `Cc1ncc(C(=O)Nc2ccc(F)c(-c3cn4cc(C5CCOCC5)cnc4n3)c2)o1` [Compound 424] are 56 nM, 164 nM, 54 nM and 118 nM.
With `Cc1nc(C)c(C(=O)Nc2ccc(F)c(-c3cn4cc(C5CCN(C(=O)OC(C)(C)C)CC5)cnc4n3)c2)o1` [Compound 425, tert-butyl 4-(2-(5-(2,4-dimethyloxazole-5-carboxamido)-2-fluorophenyl)imidazo[1,2-a]pyrimidin-6-yl)piperidine-1-carboxylate], the EC50 in assay [1] worked out at 140 nM; in assay [2], 198 nM; in assay [3] it was 97 nM; in assay [4] it was 50 nM.
Turning to `Cc1nc(C)c(C(=O)Nc2ccc(F)c(-c3cn4cc(-c5cn(C)cn5)cnc4n3)c2)o1` [Compound 426, N-(4-fluoro-3-(6-(1-methyl-1H-imidazol-4-yl)imidazo[1,2-a]pyrimidin-2-yl)phenyl)-2,4-dimethyloxazole-5-carboxamide], the EC50 worked out at 16 nM in assay [1], 182 nM in assay [2], 378 nM in assay [3] and 124 nM in assay [4].

For orientation: EC50 means the concentration that produces a half-maximal response.
